Measurements reported in patent US20090191173A1, “Induction Of Neurogenesis And Stem Cell Therapy In Combination With Copolymer 1” (priority 2004, published 2009).

Columns and labels:
[1] = test system: microglia; experiment: TNF-α and IGF-I expression in treated microglia (RT-PCR, immunocytochemistry); type: cell-based, mouse; conditions: IFN-γ 20 ng/ml
Description: (vi) Immunocytochemistry. Cover slips from co-cultures of NPCs and mouse microglia were washed with PBS, fixed as described above, treated with a permeabilization/blocking solution containing 10% FCS, 2% bovine serum albumin, 1% glycine, and 0.1% Triton X-100 (Sigma-Aldrich, Rehovot) and stained with a combination of the mouse or rabbit anti-tubulin β-III-isoform C-terminus antibodies (β-III-tubulin; 1:500), rabbit anti-NG2 chondroitin sulfate proteoglycan (NG2; 1:500), mouse anti-RIP (RIP; 1:2000), mouse anti-galactocerebroside (GalC; 1:250), mouse anti-glutamic acid decarboxylase 67 (GAD; 1:1000), mouse anti-nestin (Nestin; 1:1000), rat anti-myelin basic protein (MBP; 1:300) (all from Chemicon, Temecula, Calif.), goat anti-double cortin (DCX; 1:400, Santa Cruz Biotechnology, Santa Cruz, Calif.) and mouse anti-glial fibrillary acidic protein (GFAP; 1:100, Sigma-Aldrich, St. Louis). […] Expression of IGF-1 was detected by goat anti-IGF-1 (1:20, R&D Systems). […]
We assayed the expression of specific mRNAs using semi-quantitative reverse transcription PCR (RT-PCR) with selected gene-specific primer pairs, using OLIGO v6.4 (Molecular Biology Insights, Cascade, Colo.).
The RT-PCR reactions were carried out using 1 μg of cDNA, […] of each primer, and ReadyMix PCR Master Mix (ABgene, Epsom, UK) in 30-μl reactions. […] Signals were quantified using a Gel-Pro analyzer 3.1 (Media Cybernetics).

[2] = test system: neural progenitor cells (NPCs); experiment: Neurogenesis from NPCs co-cultured with microglia pre-activated by aggregated Aβ and cytokines; type: cell-based, mouse; conditions: 10 days; Aβ 5 μM 48 h, cytokines 10 ng/ml
Procedure: (xx) Reagents. Recombinant mouse IFN-γ and IL-4 (both containing endotoxin at a concentration below 0.1 ng/μg cytokine) were obtained from R&D Systems (Minneapolis, Minn.). β-amyloid peptides [amyloid protein fragment 1-40 and 1-42 (Aβ1-40/1-42)] were purchased from Sigma-Aldrich, St. Louis, Mo. The Aβ peptides were dissolved in endotoxin-free water, and Aβ aggregates were formed by incubation of Aβ, as described (Ishii et al., 2000). (xxv) Neural progenitor cell culture. Coronal sections (2 mm thick) of tissue containing the subventricular zone of the lateral ventricle were obtained from the brains of adult C57B1/6J mice. […] After centrifugation at 110×g for 15 min at room temperature, the tissue was mechanically dissociated by pipette trituration. Cells obtained from single-cell suspensions were plated (3500 cells/cm^2) in 75-cm^2 Falcon tissue-culture flasks (BD Biosciences, San Diego, Calif.), in NPC-culturing medium [Dulbecco's modified Eagles's medium (DMEM)/F12 medium (Gibco/Invitrogen, Carlsbad, Calif.) containing 2 mM L-glutamine, 0.6% glucose, 9.6 μg/ml putrescine, 6.3 ng/ml progesterone, 5.2 ng/ml sodium selenite, 0.02 mg/ml insulin, 0.1 mg/ml transferrin, 2 μg/ml heparin (all from Sigma-Aldrich, Rehovot, Israel), fibroblast growth factor-2 (human recombinant, 20 ng/ml), and epidermal growth factor (human recombinant, 20 ng/ml; both from Peprotech, Rocky Hill, N.J.)]. Spheres were passaged every 4-6 days and replated as single cells. Green fluorescent protein (GFP)-expressing NPCs were obtained as previously described (Pluchino et al., 2003). (xxvi) Primary microglial culture. Brains from neonatal (P0-P1) C57B1/6J mice were stripped of their meninges and minced with scissors under a dissecting microscope (Zeiss, Stemi DV4, Germany) in Leibovitz-15 medium (Biological Industries, Kibbutz Beit Ha-Emek, Israel). […] The cell suspension was washed in culture medium for glial cells [DMEM supplemented with 10% fetal calf serum (FCS; Sigma-Aldrich, Rehovot), L-glutamine (1 mM), sodium pyruvate (1 mM), penicillin (100 U/ml), and streptomycin ([…])] and cultured at 37° C./5% CO2 in 75-cm^2 Falcon tissue-culture flasks (BD Biosciences) coated with poly-D-lysine (PDL) (10 mg/ml; Sigma-Aldrich, Rehovot) in borate buffer (2.37 g borax and 1.55 g boric acid dissolved in 500 ml sterile water, pH 8.4) for 1 h, then rinsed thoroughly with sterile, glass-distilled water. Half of the medium was changed after 6 h in culture and every 2nd day thereafter, starting on day 2, for a total culture time of 10-14 days. […]

## IFN-γ: recombinant interferon-γ
[1]
  IGF-I mRNA in microglia as a function of time: down-regulation of IGF-I
  TNF-α production by microglia as a function of time: transient increase in TNF-α production
[2]
  neurogenesis (GFP+/βIIIT+ cells) from NPCs co-cultured with treated microglia: increase in numbers of GFP^+/βIIIT^+ cells was dramatic
